Measurements as given in patent publication US20220288058A1, “COMBINATION THERAPY USING A MALT1 INHIBITOR AND A BTK INHIBITOR” (Janssen Pharmaceutica NV, priority 2021, published 2022).

What was measured:
[1] = system: OCI-Ly10; test: Inhibition of DLBCL cancer cell proliferation (CellTiter-Glo), Compound A and Compound B mono and combination; assay type: cell-based, human; settings: monotherapy, highest concentration tested, 4 days
Description: (§1) Compound A and Compound B were used throughout the in vitro and cellular assessment of activity. All small molecules were prepared as 100% dimethyl sulfoxide (DMSO) stocks as indicated. A final concentration of 0.25% DMSO was used as a control. High Control=Cells+DMSO 0.25%.
(§2) A panel of 4 B-cell lymphoma lines was treated with different doses of both compounds. The following ABC-DLBCL cell lines were tested: OCI-Ly10; TMD8; OCI-Ly3; and HBL1. The cell lines were grown in 96-well plates and treated with a matrix of seven scalar concentrations of Compound A ([…]) and six scalar concentrations of Compound B ([…]) and all combinations thereof. This checkerboard design was repeated on up to four separate plates. The final concentration of DMSO was 0.25%. After an incubation of four days at 37° C. and 5% CO2, cell viability was determined by adding CellTiter-Glo®. Luminescence was read on an Envision device and readouts were used to calculate potential combination effects.
For the assessment of combination effects on DLBCL or MCL cancer cell proliferation, the observed combination effects were evaluated using the public available BIGL (Biochemically Intuitive Generalized Loewe Model) R package which measures the evidence in the data, in the presence of variability, against certain null models derived from the monotherapies. […]

[2] = system: OCI-Ly3; test: as above; assay type: cell-based; settings: monotherapy, highest concentration tested, 4 days
Description: as §1, §2
(§3) For the assessment of combination effects on DLBCL or MCL cancer cell proliferation, the observed combination effects were evaluated using the public available BIGL (Biochemically Intuitive Generalized Loewe Model) R package which measures the evidence in the data, in the presence of variability, against certain null models derived from the monotherapies. In first step, monotherapies were fitted with 4PL models with extra constraint of common baseline between two agents. When no activity was observed, a straight line was fitted through the monotherapy data. In a second step, hypothesis tests at 5% significance level were performed which basically contrast the observed readouts of the combination experiments with those predicted from the null model derived from the monotherapies where both HSA (Highest Single Agent) 17 and generalized Loewe18 were assessed for these studies.

[3] = system: TMD8; test: as above; assay type: cell-based; settings: monotherapy, highest concentration tested, 4 days
Description: as §1, §2, §3

[4] = target: T1, BTK protein (Homo sapiens, UniProt Q06187); test: Study 1: BTK occupancy assay (ELISA) in OCI-LY10 DLBCL tumor lysates of NSG mice; assay type: in vivo, mouse
T1 construct: measuring the amount of free BTK protein in OCI-LY10 DLBCL tumor lysates of mice treated with various dosing concentrations of Compound B; endogenous in cells; host or cells: OCI-LY10 ABC-DLBCL xenograft tumours grown SC in female NSG mice (tumour lysates)
Description: In Study 1, 5×10^6 OCI-LY10 cells in PBS containing 50% Matrigel™ were injected subcutaneously (SC) into the right hind flank of female NSG mice. Tumor growth was measured over time and once tumors reached volumes of approximately 525 mm^3, mice were randomized in groups of 15 and treated orally with a single dose of Compound B according to treatment schedule (see Table 4). Blood was collected serially by mandibular vein sampling from 5 animals per time point per group to determine circulating compound concentration and IL10 levels at 2, 4, 8, 12, 16, and 24 hours post single dose. Blood was harvested in EDTA and plasma was obtained via centrifugation at 3000 rpm for 10 minutes. In addition, tumor samples were harvested from 5 animals per timepoint per treatment group for BTK occupancy studies at 4, 12, and 24 hours post single dose.
Compound B is a covalent orally bioavailable inhibitor binding BTK irreversibly, allowing us to evaluate the duration of signaling shutdown and occupancy of BTK protein after compound administration considering compound binding to BTK as well as synthesis rate of new BTK protein. Target engagement was determined by measuring the amount of free BTK protein in OCI-LY10 DLBCL tumor lysates of mice treated with various dosing concentrations of Compound B using a BTK occupancy assay (ELISA assay format). A covalent BTK inhibitor probe, chemically linked to biotin (CNX-500 Probe), was incubated in PBS/BT (PBS+1% BSA+0.05% tween-20) with tumor lysate for 1 hour at 28° C. Incubated BTK standards and samples were transferred to a streptavidin-coated 96-well plates and mixed while shaking for 30 minutes at RT. The BTK-antibody was then added and incubated overnight at 4° C. After washing, goat anti-mouse-HRP was added and incubated for 1 hour at RT. The ELISA was developed with addition of tetramethyl benzidine (TMB) followed by sulfuric acid (stop solution) and read at optical density 450 nm on Envision device.

[5] = system: OCI-LY10 human DLBCL xenografts; test: Study 2: Compound B monotherapy efficacy, OCI-LY10 xenografts in NSG mice; assay type: in vivo, mouse; settings: for TGI / ΔTGI: Study 2, Day 45; for animals succumbed to disease burden / animals removed from the study due to tumor progression: Study 2; for animals succumbed to disease burden: by 17 days into the 21-day treatment; for animals removed from the study due to tumor progression: by 21 days of treatment
Description: In efficacy study, Study 2, NSG female animals were injected SC into the right find flank with 5×10^6 OCI-LY10 cells in PBS containing 50% Matrigel™. On day 32, mice were randomized based on tumor volume (mean tumor volume of 207 mm^3) and treated orally once or twice daily with BTK inhibitor Compound B according to treatment schedule above (see Table 4) for 21 days. After the last dose on Day 53, blood was collected serially via submandibular vein sampling from 5 animals per time point per treatment group at 2, 4, 12, and 24 hours after dosing. Blood was collected in EDTA and plasma was obtained via centrifugation at 3000 rpm for 10 minutes. Samples were snap frozen and stored at […] for possible future analyses.
Tumor volume in SC models was calculated using the formula: tumor volume (mm^3)=(D×d^2/2); where “D” represents the larger diameter and “d” the smaller diameter of the tumor as determined by calliper measurements. Tumor volume data was graphed as the mean tumor volume f SEM.
The percent ΔTGI was defined as the difference between mean tumor burden of the treatment and control groups, calculated using the following formula: ([(TVc−TVc0)−(TVt−TVt0)]/(TVc−TVc0))×100, where “TVc” is the mean tumor burden of a given control group, “TVc0” is the mean initial tumor burden of a given control group, “TVt” is the mean tumor burden of the treatment group, and “TVt0” is the mean initial tumor burden of the treatment group. The percent tumor growth inhibition (TGI) was defined as the difference between mean tumor volumes of the treated and control groups, calculated as: ((TVc−TVt)/TVc)×100 where “TVc” is the mean tumor volume of the control group and “TVt” is the mean tumor volume of the treatment group. […] Johnson et al., Br J Cancer. 2001; 84(10):1424-1431.

T1 sequence (Q06187 whole entry): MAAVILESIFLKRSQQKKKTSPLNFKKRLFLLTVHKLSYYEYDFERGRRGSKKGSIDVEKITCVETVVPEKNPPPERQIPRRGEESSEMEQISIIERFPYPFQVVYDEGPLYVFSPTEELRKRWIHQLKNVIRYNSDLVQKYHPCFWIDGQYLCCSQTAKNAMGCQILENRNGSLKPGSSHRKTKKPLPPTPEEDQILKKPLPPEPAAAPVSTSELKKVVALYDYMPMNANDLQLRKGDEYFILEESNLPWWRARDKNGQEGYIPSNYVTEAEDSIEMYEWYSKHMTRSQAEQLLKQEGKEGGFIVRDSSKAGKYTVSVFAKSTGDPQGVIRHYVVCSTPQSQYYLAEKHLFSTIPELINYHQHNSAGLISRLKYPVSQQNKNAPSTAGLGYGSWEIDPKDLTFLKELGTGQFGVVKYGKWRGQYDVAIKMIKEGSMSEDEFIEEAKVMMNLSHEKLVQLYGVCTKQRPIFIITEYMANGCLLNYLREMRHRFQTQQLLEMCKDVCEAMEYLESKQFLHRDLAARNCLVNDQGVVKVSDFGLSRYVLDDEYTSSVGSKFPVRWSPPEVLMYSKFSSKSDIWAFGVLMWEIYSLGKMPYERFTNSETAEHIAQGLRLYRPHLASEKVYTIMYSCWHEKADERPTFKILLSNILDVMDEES

C=CC(=O)N[C@H]1CCC[C@H]1NC(=O)c1sc2nccc3c2c1NC(=O)N3c1cnc(CC(C)C)cc1C (atropisomer, axis not shown) [Compound B, N-((1R,2S)-2-acrylamidocyclopentyl)-5-(S)-(6-isobutyl-4-methylpyridin-3-yl)-4-oxo-4,5-dihydro-3H-1-thia-3,5,8-triazaacenaphthylene-2-carboxamide]
proliferation inhibition [1]: up to 75% | proliferation inhibition [2]: did not inhibit proliferation | proliferation inhibition [3]: up to 80% | BTK occupancy in tumor lysates ([4]; 1 mg/kg single dose): No BTK occupancy | BTK occupancy in tumor lysates ([4]; 3 mg/kg single dose): No BTK occupancy | decrease in unoccupied (free) BTK in tumors ([4]; Compound B at 1, 3, 10, 30, or 100 mg/kg single dose, maximal at ≥ 30 mg/kg, sustained through 24 hours): Dose-and time-dependent | receptor occupancy at 10 mg/kg ([4]; OCI-Ly10, 4 hours after dosing): 54% | receptor occupancy at 30 mg/kg ([4]; OCI-Ly10, 4 hours after dosing): 90% | receptor occupancy at 100 mg/kg ([4]; OCI-Ly10, 4 hours after dosing): 95% | receptor occupancy at 10 mg/kg ([4]; OCI-Ly10, 12 hours): 71% | receptor occupancy at 30 mg/kg ([4]; OCI-Ly10, 12 hours): 94% | receptor occupancy at 100 mg/kg ([4]; OCI-Ly10, 12 hours): 96% | receptor occupancy at 10 mg/kg ([4]; OCI-Ly10, 24 hours): 70% | receptor occupancy at 30 mg/kg ([4]; OCI-Ly10, 24 hours): 91% | receptor occupancy at 100 mg/kg ([4]; OCI-Ly10, 24 hours): 85% | BTK occupancy in tumors ([4]; single dose as low as 30 mg/kg, effects lasting up to 24 hours): complete BTK occupancy | TGI ([5]; Compound B 5 mg/kg BID po): 26% | ΔTGI ([5]; Compound B 5 mg/kg BID po): 34% | TGI ([5]; Compound B 10 mg/kg QD po): 24% | ΔTGI ([5]; Compound B 10 mg/kg QD po): 30% | TGI ([5]; Compound B 30 mg/kg QD po): 35% | ΔTGI ([5]; Compound B 30 mg/kg QD po): 45% | TGI ([5]; Compound B 50 mg/kg BID po): 78% | ΔTGI ([5]; Compound B 50 mg/kg BID po): 102% | animals succumbed to disease burden ([5]; Compound B 10 mg/kg QD): two animals | animals succumbed to disease burden ([5]; Compound B 100 mg/kg QD): a mouse | animals removed from the study due to tumor progression ([5]; Compound B 5 mg/kg BID): 4/10 | animals removed from the study due to tumor progression ([5]; Compound B 10 mg/kg QD): 7/10 | animals removed from the study due to tumor progression ([5]; Compound B 15 mg/kg BID): 1/10 | animals removed from the study due to tumor progression ([5]; Compound B 30 mg/kg QD): 2/10 | animals removed from the study due to tumor progression ([5]; Compound B 100 mg/kg QD): 3/10
